Calls of active or inactive are those of the source. The rule behind the calls is not given here.
Columns and labels:
[1] = system: MCF7; assay: cells; details: Homo sapiens, MCF7, 48 h
Description: Cytotoxicity against human MCF7 cells after 48 hrs by MTT assay

[2] = system: HT-29; assay: Cytotoxicity against human HT-29 cells after 48 hrs by MTT assay; type: functional, cell-based; details: HT-29, 48 h
[3] = system: A549; assay: cells; details: Homo sapiens, A549, 48 h
Description: Cytotoxicity against human A549 cells after 48 hrs by MTT assay

[4] = system: A-375; assay: Cytotoxicity against human A375 cells after 48 hrs by MTT assay; type: functional, cell-based; details: A-375, 48 h
[5] = system: A549; assay: Cell cycle arrest in human A549 cells assessed as cell accumulation at G0/G1 phase at 2 uM after 48 hrs by propidium iodide staining based flow cytometry (reference value: 70.15%); type: functional
[6] = system: A549; assay: Cell cycle arrest in human A549 cells assessed as cell accumulation at G2/M phase at 2 uM after 48 hrs by propidium iodide staining based flow cytometry (reference value: 23.75%); type: functional
[7] = system: A549; assay: Induction of apoptosis in human A549 cells assessed as increase in caspase3 activity using AFC-conjugated Ac-DEVD as substrate at 2 uM after 48 hrs by fluorescence assay relative to control; type: functional
[8] = system: A549; assay: Cell cycle arrest in human A549 cells assessed as cell accumulation at subG1 phase at 2 uM after 48 hrs by propidium iodide staining based flow cytometry (reference value: […]); type: functional
[9] = Inhibition of tubulin polymerization after 1 hr by fluorescence assay
[10] = Inhibition of tubulin polymerization at 3 uM after 1 hr by fluorescence assay
[11] = target: Tubulin (Homo sapiens) (UniProt P68371+Q9H4B7+P0DPH7+P68366+Q13509+Q71U36+P04350+Q3ZCM7+P07437+P68363+Q9BQE3+Q6PEY2+Q13885+Q9BVA1+Q9BUF5); assay: Inhibition of tubulin polymerization in human A549 cells assessed as disrupted microtubule organization at 2 uM after 48 hrs by immunohistochemistry analysis; type: cell-based
[12] = system: ACHN; assay: Cytotoxicity against human ACHN cells after 48 hrs by MTT assay; type: functional, cell-based
[13] = system: A549; assay: Induction of apoptosis in human A549 cells assessed as viable cells at 2 uM after 48 hrs by annexin-V FITC/propidium iodide staining based FACS analysis; type: functional; details: A549, 48 h, read-out: Activity
[14] = system: A549; assay: Induction of apoptosis in human A549 cells assessed as late apoptotic cells at 2 uM after 48 hrs by annexin-V FITC/propidium iodide staining based FACS analysis; type: functional
[15] = system: A549; assay: Induction of apoptosis in human A549 cells assessed as early apoptotic cells at 2 uM after 48 hrs by annexin-V FITC/propidium iodide staining based FACS analysis; type: functional
[16] = system: A549; assay: Induction of apoptosis in human A549 cells assessed as necrotic cells at 2 uM after 48 hrs by annexin-V FITC/propidium iodide staining based FACS analysis; type: functional

Row | IC50 [1] [nM] | IC50 [3] [nM] | IC50 [9] [µM] | inhibition [11] | SMILES | IC50 ([2]; read-out: IC50) [nM] | IC50 [4] [nM] | Activity [5] [%] | Activity [6] [%] | fold change (FC) [7] | Activity [8] [%] | inhibition [10] [%] | IC50 [12] [nM] | IC50 [2] [nM] | viability at 2 µM [13] [%] | Activity [14] [%] | Activity [15] [%] | Activity [16] [%]
1 | 120 | 760 | 3.7 | Active | COc1ccc(/C=C/C(=O)c2cc(OC)c(OC)c(OC)c2)cc1O | 1900 | 190 | 18.59 | 55.47 | 6 | 12.34 | 62.6 | 1620 |  |  |  |  | 
2 | 2500 | 5100 |  |  | COc1ccc(/C=C/C(=O)c2cc(OC)c(OC)c(OC)c2)cc1OCC(=O)Nc1nc2c(C)cccc2s1 | 6100 | 2800 |  |  |  |  |  | 3800 |  |  |  |  | 

Row | SMILES | IC50 [1] [nM] | IC50 [3] [nM] | IC50 [9] [µM] | inhibition [11] | IC50 ([2]; read-out: IC50) [nM] | IC50 [4] [nM] | Activity [5] [%] | Activity [6] [%] | fold change (FC) [7] | Activity [8] [%] | inhibition [10] [%] | IC50 [12] [nM] | IC50 [2] [nM] | viability at 2 µM [13] [%] | Activity [14] [%] | Activity [15] [%] | Activity [16] [%]
3 | COc1ccc(/C=C\c2cc(OC)c(OC)c(OC)c2)cc1O [COMBRETASTATIN A4] | 180 | 110 |  |  |  | 210 | 13.98 | 63.75 |  | 8.44 | 69.7 | 170 | 930 | 54.4 | 23.3 | 0.3 | 22

Reference: ChEMBL document CHEMBL2034833, “Synthesis of chalcone-amidobenzothiazole conjugates as antimitotic and apoptotic inducing agents” (Bioorg Med Chem, 2012)
